The values below come from publication PMC10537229, “Antimicrobial Peptides Originating from Expression Libraries of Aurelia aurita and Mnemiopsis leidyi Prevent Biofilm Formation of Opportunistic Pathogens” (Microorganisms, 2023).

“Also recorded” adds a separate entry of the source.

For data set [1], the system named is K. oxytoca. The data set can be described thus: Biofilm prevention in vitro assay (crystal violet, static). The format is cell-based, Klebsiella oxytoca. The conditions noted are these: 18 h. Here is the method:
(§1) The opportunistic pathogenic bacteria K. oxytoca (DSM 7342, M5a1-type strain), P. aeruginosa PAO1 (DSM 1707, pathogenic-type strain), S. epidermidis RP62A (DSM 28319, clinical isolate from catheter sepsis), and S. aureus (DSM 11823, clinical isolate) were grown in 5 mL LB medium overnight at below-indicated temperatures. The cell concentrations of the overnight cultures were analyzed with Neubauer cell counting and set to 3 × 10^8 cells/mL using GC minimal medium (with 1% (v/v) glycerol and 0.3% (w/v) casamino acids) for K. oxytoca and Caso bouillon (17 g/L casein peptone, 3 g/L soybean peptone, 5 g/L NaCl, 2.5 g/L K2HPO4, and 2.5 g/L glucose) for the remaining strains in the crystal violet assay. Cultures were aliquoted in 96-well plates (180/195 µL for each cavity). Cell-free size-fractionated cell extracts (20 µL) and synthesized peptides (various concentrations, 5 µL) were added to the cultures. MTPs were closed with gas-permeable membranes (Breathe-Easy®, Diversified Biotech, Dedham, MA, USA) and incubated at 37 °C (P. aeruginosa, S. aureus, and S. epidermidis) or 30 °C (K. oxytoca) for 18 h without shaking. Three biological replicates were performed, each with eight technical replicates. Medium controls were performed for normalization. Biofilm formation was monitored and quantified using the crystal violet assay. Following an 18 h incubation period, the cell cultures were removed, and the wells underwent two washes with H2O. Biofilms that developed and adhered to the surfaces were subjected to staining using 200 μL of a 0.1% crystal violet solution (Carl Roth, Karlsruhe, Germany) for 10 min at room temperature (RT). The stained biofilms were left to air dry after eliminating the crystal violet solution through two H2O washes. A total of 200 μL of 96% ethanol was introduced into each stained well to solubilize the dye, and incubation at RT for 15 min followed. Biofilm formation was assessed by measuring the absorbance of resolved crystal violet at 590 nm with the plate reader Spectra max Plus 384 (Molecular Devices, Ismaning; Germany). The screening procedure is depicted in Figure S1.

The subject of a further data set is P. aeruginosa PAO1. The data set is described as above. As to conditions: 18 h; for effect on P. aeruginosa biofilm formation (in words): synthetic peptide 0.4-112.5 µg/mL. It is filed as cell-based, Pseudomonas aeruginosa. As to the method: as §1
For data set [2], the system named is K. oxytoca, P. aeruginosa, S. epidermidis, and S. aureus. The data set can be described thus: Crystal violet biofilm assay, statements on all tested pathogens. It is filed as cell-based. As to conditions: summary in discussion. As to the method:
as §1, with “Three biological replicates were performed, each with eight technical replicates. Medium controls were performed for normalization.” left out, “Following an 18 h incubation period, the cell cultures were removed, and the wells underwent two washes with H2O. Biofilms that developed and adhered to the surfaces were subjected to staining using 200 μL of a 0.1% crystal violet solution (Carl Roth, Karlsruhe, Germany) for 10 min at room temperature (RT). The stained biofilms were left to air dry after eliminating the crystal violet solution through two H2O washes. A total of 200 μL of 96% ethanol was introduced into each stained well to solubilize the dye, and incubation at RT for 15 min followed.” left out, “The screening procedure is depicted in Figure S1.” left out

For data set [3], the system named is S. aureus. As to the kind of experiment: Growth of planktonic-growing pathogens (turbidity at 600 nm). It is filed as cell-based, Staphylococcus aureus. The conditions noted are these: 18 h; for turbidity (600 nm), S. aureus: 112.5 µg/mL peptide, LB, 80 rpm, 37 °C, mean of 2 biological x 8 technical replicates, control 1.37192917; for reduction of planktonic growth of S. aureus: 112.5 µg/mL, versus control without peptide. Here is the method: (§2) In addition, the potential growth-inhibiting effects of synthetic peptides were tested on planktonic-growing pathogens. Again, 3 × 10^8 cells/mL diluted in LB medium were aliquoted in 96-well plates (200 µL for each cavity). Synthetic peptides were added to two selected final concentrations of 3.5 µg/mL and 112.5 µg/mL at the beginning of the experiment. MTPs were closed with gas-permeable membranes and gently shaken at 80 rpm and 37 °C (P. aeruginosa, S. aureus, and S. epidermidis) or 30 °C (K. oxytoca) for 18 h. A comparative endpoint determination (growth control, peptide control IDR-1018, and identified peptides) of the turbidity at 600 nm was measured with plate reader Spectra max Plus 384. An unpaired t-test was conducted as a statistical hypothesis test to determine the significance (p-value) of growth differences.

The next data set relates to S. epidermidis RP62A. As to the kind of experiment: Biofilm prevention in vitro assay (crystal violet, static). The format is cell-based, Staphylococcus epidermidis. The conditions noted are these: 18 h. Here is the method:
as §1

A further data set concerns P. aeruginosa. As to the kind of experiment: Growth of planktonic-growing pathogens (turbidity at 600 nm). The format is cell-based, Pseudomonas aeruginosa. The conditions noted are these: 18 h; for turbidity (600 nm), P. aeruginosa: 112.5 µg/mL peptide, LB, 80 rpm, 37 °C, mean of 2 biological x 8 technical replicates, control 1.2788369; for reduction of planktonic growth of P. aeruginosa: 112.5 µg/mL, versus control without peptide. As to the method:
as §2

The subject of data set [4] is K. oxytoca. Described as above. It is filed as cell-based, Klebsiella oxytoca. As to conditions: 112.5 µg/mL peptide, LB, 18 h, 80 rpm, 30 °C; mean of 2 biological x 8 technical replicates; control 1.21326667. As to the method:
as §2

In the next data set the test system is S. epidermidis. The description is as above. The format is cell-based, Staphylococcus epidermidis. As to conditions: 18 h; for turbidity (600 nm), S. epidermidis: 112.5 µg/mL peptide, LB, 80 rpm, 37 °C, mean of 2 biological x 8 technical replicates, control 1.3398. As to the method:
as §2

The subject of the next data set is K. oxytoca M5aI. The data set can be described thus: Dynamic biofilm formation in microfluidic flow cell (Syto9, CLSM). The format is cell-based, Klebsiella oxytoca. The conditions noted are these: peptide 10 ng/channel, GC medium, flow 15 µL/h, 24 h, 30 °C, mean ± SD of four biological x four technical replicates; for biofilm thickness: medium control 11 ± 6 µm; for biofilm volume: medium control 112 ± 62 µm^3. From the text: The microfluidic flow cell system comprises a polymethyl methacrylate corpus with a single channel (1 × 8 × 0.1 mm). Two inlets and one outlet exist. A borosilicate glass (24 × 60 × 0.17 mm; Carl Roth, Karlsruhe, Germany) was fixed with the adhesive Black-Seal silicone (Weicon, Münster, Germany). Microliter syringes (Innovative Labor System GmbH, Stützenbach, Germany) were connected via polytetrafluoroethylene (PTFE) tubes (0.3 mm × 0.6 mm) (Bola, Grünsfeld, Germany) with the in- and outlets and clamped into a syringe pump (Model: 220) (KD Scientific, Holliston, MA, USA). The channel was sterilized by rinsing 70% EtOH for 24 h at a flow rate of 20 µL/h. Afterwards, the remaining ethanol was washed out with sterile water at 20 μL/h for 1 h. Subsequently, the channel was equilibrated with GC medium at 20 μL/h for 2 h. Inoculation was conducted with a cell suspension of 1 × 10^9 cells/mL, generated from an overnight culture of K. oxytoca M5aI. Initial cell adhesion was ensured by incubation at 30 °C for 1 h without any flow. Next, the channel was continuously rinsed at 15 μL/h with GC medium injected within the first inlet. The synthetic peptides IDR-1018 (biofilm-preventing control peptide, [47, 48], BiP_Aa_2, BiP_Aa_5, and BiP_Aa_6 were diluted in GC medium to a concentration of 25 µg/mL and injected within the second inlet. Thus, the final peptide concentration was 12.5 µg/mL, corresponding to 10 ng peptide within the 0.8 µL channel. Biofilm formation was conducted at a flow rate of 15 µL/h for 24 h at 30 °C. The biofilm formation of K. oxytoca M5aI was further studied without adding peptides. Four biological replicates were conducted for each treatment.
Biofilms were stained with the fluorescent dye Syto9 (488 nm) (Life Technologie, Carlsbad, CA, USA) and analyzed using the LSM 700 confocal laser scanning microscope (Zeiss, Oberkochen, Germany). Therefore, the microfluidic flow cells were washed with GC medium at 3 µL/min for 15 min. The channel was then filled with a 1:1000 dilution of the fluorescent dye Syto9 and incubated in the dark at RT for 30 min. Dye residues were removed by rinsing GC medium at 3 μL/min for 15 min. Four image stacks were recorded per flow cell with optical sections of 0.9 µm per z-step. The digital image acquisition, three-dimensional reconstruction, and calculation of the biofilm parameters were performed with the software “Zen Black” (version 14.0.22.201) (Zeiss, Oberkochen, Germany) and the microscopy image analysis software “Imaris” (version 9.9.0) (Oxford Instruments, Abingdon, UK).

Data set [5] concerns S. aureus. As to the kind of experiment: Biofilm prevention in vitro assay (crystal violet, static). As to conditions: synthetic peptide 0.4-112.5 µg/mL, 18 h. It is filed as cell-based, Staphylococcus aureus. Here is the method: as §1
Data set [6] is described as follows: Dimerization of peptide with increasing concentration (preliminary results). The format is physicochemical.
Setting [7] is: synthetic peptide at highest concentration 112.5 µg/mL, versus biofilm control (100%).
[8] abbreviates: synthetic peptide 0.4-112.5 µg/mL.

In the case of “VRNSVLFRRRRLVC [BiP_Aa_5, synthetic peptide from sORF of A. aurita EST clone 127_8F]”, the “reduction of K. oxytoca biofilm formation at 112.5 µg/mL” value in the data set on K. oxytoca [1] (setting [7]) stood at 54%. Further, in the data set on P. aeruginosa PAO1, the “effect on P. aeruginosa biofilm formation (in words)” value is reported as “slight interference”. In the data set with P. aeruginosa PAO1 (synthetic peptide at highest dose 112.5 µg/mL, versus biofilm control (100%)), the “reduction of P. aeruginosa biofilm formation at 112.5 µg/mL” value worked out at 47%. Further, in [2], the “reduction of biofilm masses, all tested pathogens” value is recorded as “up to 50%”. Further, in the data set with S. aureus [3], the “turbidity (600 nm), S. aureus” value is reported as 1.312 and the “reduction of planktonic growth of S. aureus” value is 1.5–5%. The “reduction of S. epidermidis biofilm formation at 112.5 µg/mL” value in the data set on S. epidermidis RP62A (setting [7]) stood at 22%. Further, in the data set with P. aeruginosa, the “turbidity (600 nm), P. aeruginosa” value was found to be 1.249 and the “reduction of planktonic growth of P. aeruginosa” value is listed as 1.5–5%. Moreover, the “turbidity (600 nm), K. oxytoca” value in the data set on K. oxytoca [4] came to 1.257. In addition, the “turbidity (600 nm), S. epidermidis” value in the data set on S. epidermidis came to 1.301. Moreover, the “reduction of planktonic growth of S. epidermidis” value in the data set on S. epidermidis (112.5 µg/mL, versus control without peptide) is listed as 3%. In the data set with K. oxytoca M5aI, the biofilm thickness was determined as 7 ± 2 µm and the biofilm volume was 51 ± 25 µm^3.
For the sequence “QLFCTKLSPT [BiP_Aa_2, synthetic peptide from sORF of A. aurita EST clone 112_6C]”, the “effect on S. aureus biofilm formation (in words)” value with S. aureus [5] is “negligible impact; also recorded: could not interfere with biofilm formation”. For the same sequence, the “effect on K. oxytoca biofilm formation (in words)” value in the data set on K. oxytoca [1] (setting [8]) was “no significant change in biofilm formation until 14.1 µg/mL”. For the same sequence, the “reduction of K. oxytoca biofilm formation over concentration range” value in the data set on K. oxytoca [1] (synthetic peptide 0.4-112.5 µg/mL, maximum or overall reduction) is recorded as “up to 43%”. In the data set with P. aeruginosa PAO1, the “effect on P. aeruginosa biofilm formation (in words)” value was “negligible impact”. Also, the “aggregation with increasing peptide concentration” value in data set [6] is reported as “dimerization”. Also, in the data set with S. aureus [3], the “turbidity (600 nm), S. aureus” value worked out at 1.304 and the “reduction of planktonic growth of S. aureus” value is 1.5–5%. Besides, in the data set on S. epidermidis RP62A (setting [8]), the “effect on S. epidermidis biofilm formation (in words)” value was “appeared to reverse with increasing concentrations”. Also, the “reduction of S. epidermidis biofilm formation over concentration range” value in the data set on S. epidermidis RP62A (synthetic peptide 0.4-112.5 µg/mL, maximum or range of reduction) is reported as 45%. Moreover, in the data set on P. aeruginosa, the “turbidity (600 nm), P. aeruginosa” value came out at 1.2593 and the “reduction of planktonic growth of P. aeruginosa” value is 1.5–5%. Further, the “turbidity (600 nm), K. oxytoca” value in the data set with K. oxytoca [4] came to 1.204. For the same sequence, the “turbidity (600 nm), S. epidermidis” value with S. epidermidis came out at 1.368. In the data set on K. oxytoca M5aI, the biofilm thickness came out at 8 ± 3 µm and the biofilm volume turned out to be 34 ± 12 µm^3.
